From US6706663B2, “Herbicidal 3-heterocyclic substituted benzisothiazole and benzisoxazole compounds” (Wyeth, priority 2000, dated 2004)

Key:
[1] = system: GLXMAW (Soybean, Williams); assay: Postemergence herbicidal evaluation; type: in vivo, Glycine max, (L.) Merr. cv Williams; settings: for GLXMAW herbicidal rating: postemergence
Summary of the method: (§1)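 Seedlings grown about two weeks in flats, sprayed, then kept under standard greenhouse care. Rated visually 4–5 weeks after treatment on a 0–9 scale (stand, vigour, malformation, size, chlorosis, overall appearance) relative to untreated control; repeat tests averaged.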

[2] = system: CHEAL (Chenopodium album); assay: Postemergence herbicidal evaluation; type: in vivo, L.; settings: for CHEAL herbicidal rating: postemergence
Summary of the method: as §1

[3] = system: AMBEL (Ambrosia artemisifolia); assay: Postemergence herbicidal evaluation; type: in vivo, L.; settings: for AMBEL herbicidal rating: postemergence
Summary of the method: as §1

[4] = system: CASOB (Cassia obtusifolia); assay: Postemergence herbicidal evaluation; type: in vivo, L.; settings: for CASOB herbicidal rating: postemergence
Summary of the method: as §1

ZEAMX (Corn, Field) [5] = assay: Preemergence herbicidal evaluation; type: in vivo, Zea mays, L.; settings: rated 4-5 weeks after treatment
GALAP (Galium aparine) [6] = assay: Postemergence herbicidal evaluation; type: in vivo; settings: for GALAP herbicidal rating: postemergence
Summary of the method: as §1

[7] = system: ECHCG (Echinochloa crus-galli); assay: Postemergence herbicidal evaluation; type: in vivo, (L.) Beau; settings: for ECHCG herbicidal rating: postemergence
Summary of the method: as §1

ZEAMX (Corn, Field) [8] = assay: Postemergence herbicidal evaluation; type: in vivo, Zea mays, L.; settings: for ZEAMX herbicidal rating: postemergence
Summary of the method: as §1

[9] = system: CYPSE (Cyperus serotinus); assay: Flooded paddy, preemergence weed control; type: in vivo, Rottb.; settings: rated 3-4 weeks after treatment, 0-9 rating scale
Summary of the method: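 Herbicidal effect was scored visually on a 0–9 scale against an untreated control 3–4 weeks after treatment. Compounds were applied preemergence as 50/50 v/v aqueous/acetone mixtures into flood water (1.5–3 cm deep over silt loam), at roughly 0.0080 to 0.1250 kg/ha active ingredient.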

[10] = system: IPOHE (Ipomoea hederacea); assay: Postemergence herbicidal evaluation; type: in vivo, (L.) Jacq.; settings: for IPOHE herbicidal rating: postemergence
Summary of the method: as §1

ORYSAT (Rice, Tebonnet) = assay: Preemergence herbicidal evaluation; type: in vivo, Oryza sativa, (L.) Tebonnet; settings: rated 4-5 weeks after treatment
[11] = system: ECHORC (Echinochloa oryzoides); assay: Flooded paddy, preemergence weed control; type: in vivo, Echinochloa oryzoides (Ard.) Fritsch.; settings: rated 3-4 weeks after treatment, 0-9 rating scale
Summary of the method: (§2)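 Preemergence, flooded: propagules planted at 0.5 cm depth in silt loam, water level maintained at 1.5 to 3 cm over soil, containers kept on greenhouse benches. Activity scored 0-9 by eye relative to a control plant.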

[12] = system: GLXMAW (Soybean, Williams); assay: Preemergence herbicidal evaluation; type: in vivo, Glycine max, (L.) Merr. cv Williams; settings: rated 4-5 weeks after treatment
GALAP (Galium aparine) [13] = assay: Preemergence herbicidal evaluation; type: in vivo; settings: preemergence, rated 4-5 weeks after treatment
Summary of the method: (§3)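 Applied before emergence as an aqueous acetone spray over seeded soil. Read-out: 0–9 visual rating covering plant stand, vigor, size, chlorosis, malformation and overall appearance compared with control, taken 4–5 weeks after spraying.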

[14] = system: TRZAWR (Wheat, Winter, cv Riband); assay: Preemergence herbicidal evaluation; type: in vivo, Triticum aestivum; settings: rated 4-5 weeks after treatment
Summary of the method: as §3

[15] = system: CHEAL (Chenopodium album); assay: Preemergence herbicidal evaluation; type: in vivo, L.; settings: rated 4-5 weeks after treatment
Summary of the method: as §3

[16] = system: AMBEL (Ambrosia artemisifolia); assay: Preemergence herbicidal evaluation; type: in vivo, L.; settings: rated 4-5 weeks after treatment
Summary of the method: as §3

[17] = system: CASOB (Cassia obtusifolia); assay: Preemergence herbicidal evaluation; type: in vivo, L.; settings: rated 4-5 weeks after treatment
Summary of the method: as §3

[18] = system: IPOHE (Ipomoea hederacea); assay: Preemergence herbicidal evaluation; type: in vivo, (L.) Jacq.; settings: rated 4-5 weeks after treatment
[19] = system: ABUTH (Abutilon theophrasti); assay: Postemergence herbicidal evaluation; type: in vivo, Medic.; settings: for ABUTH herbicidal rating: postemergence
Summary of the method: as §1

CYPIR (Cyperus iria) = assay: Flooded paddy, preemergence weed control; type: in vivo; settings: rated 3-4 weeks after treatment, 0-9 rating scale
Summary of the method: as §2

[20] = system: SAGPY (Sagittaria pygmaea); assay: Flooded paddy, preemergence weed control; type: in vivo, L.; settings: rated 3-4 weeks after treatment, 0-9 rating scale
Summary of the method: as §2

**Q.** Which results are given for “1-methyl-3-[3-(1,3-oxathiolan-2-yl)-1,2-benzisothiazol-5-yl]-6-(trifluoromethyl)uracil S′,S′-dioxide [Compound 32]”?
**A.** Postemergence herbicidal rating, GLXMAW ([1]; rate 0.0320 kg/ha): 8.0; Postemergence herbicidal rating, GLXMAW ([1]; rate 0.0620 kg/ha): 9.0; Postemergence herbicidal rating, CHEAL ([2]; rate 0.0320 kg/ha): 9.0; Postemergence herbicidal rating, CHEAL ([2]; rate 0.0620 kg/ha): 9.0; Postemergence herbicidal rating, AMBEL ([3]; rate 0.0320 kg/ha): 9.0; Postemergence herbicidal rating, AMBEL ([3]; rate 0.0620 kg/ha): 9.0; Postemergence herbicidal rating, CASOB ([4]; rate 0.0320 kg/ha): 7.0; Postemergence herbicidal rating, CASOB ([4]; rate 0.0620 kg/ha): 9.0; ZEAMX preemergence herbicidal rating (ZEAMX (Corn, Field) [5]; Rate 0.0620 kg/ha): 6.0; ZEAMX preemergence herbicidal rating (ZEAMX (Corn, Field) [5]; Rate 0.1250 kg/ha): 9.0; ZEAMX preemergence herbicidal rating (ZEAMX (Corn, Field) [5]; Rate 0.2500 kg/ha): 9.0; Postemergence herbicidal rating, GALAP (GALAP (Galium aparine) [6]; rate 0.0320 kg/ha): 2.0; Postemergence herbicidal rating, GALAP (GALAP (Galium aparine) [6]; rate 0.0620 kg/ha): 6.0; Postemergence herbicidal rating, ECHCG ([7]; rate 0.0320 kg/ha): 3.0; Postemergence herbicidal rating, ECHCG ([7]; rate 0.0620 kg/ha): 5.0; Postemergence herbicidal rating, ZEAMX (ZEAMX (Corn, Field) [8]; rate 0.0320 kg/ha): 5.5; Postemergence herbicidal rating, ZEAMX (ZEAMX (Corn, Field) [8]; rate 0.0620 kg/ha): 5.5; herbicidal rating, CYPSE ([9]; rate 0.0320 kg/ha): 0.0; Postemergence herbicidal rating, IPOHE ([10]; rate 0.0320 kg/ha): 9.0; Postemergence herbicidal rating, IPOHE ([10]; rate 0.0620 kg/ha): 9.0; ORYSAT preemergence herbicidal rating (ORYSAT (Rice, Tebonnet); Rate 0.0620 kg/ha): 5.0; ORYSAT preemergence herbicidal rating (ORYSAT (Rice, Tebonnet); Rate 0.1250 kg/ha): 7.5; ORYSAT preemergence herbicidal rating (ORYSAT (Rice, Tebonnet); Rate 0.2500 kg/ha): 8.5; herbicidal rating, ECHORC ([11]; rate 0.0320 kg/ha): 0.0; herbicidal rating, ECHORC ([11]; rate 0.1250 kg/ha): 0.0; GLXMAW preemergence herbicidal rating ([12]; Rate 0.0620 kg/ha): 6.5; GLXMAW preemergence herbicidal rating ([12]; Rate 0.1250 kg/ha): 9.0; GLXMAW preemergence herbicidal rating ([12]; Rate 0.2500 kg/ha): 9.0; GALAP preemergence herbicidal rating (GALAP (Galium aparine) [13]; Rate 0.0620 kg/ha): 9.0; GALAP preemergence herbicidal rating (GALAP (Galium aparine) [13]; Rate 0.1250 kg/ha): 9.0; GALAP preemergence herbicidal rating (GALAP (Galium aparine) [13]; Rate 0.2500 kg/ha): 9.0; TRZAWR preemergence herbicidal rating ([14]; Rate 0.0620 kg/ha): 7.0; TRZAWR preemergence herbicidal rating ([14]; Rate 0.1250 kg/ha): 8.0; TRZAWR preemergence herbicidal rating ([14]; Rate 0.2500 kg/ha): 9.0; CHEAL preemergence herbicidal rating ([15]; Rate 0.0620 kg/ha): 9.0; CHEAL preemergence herbicidal rating ([15]; Rate 0.1250 kg/ha): 9.0; CHEAL preemergence herbicidal rating ([15]; Rate 0.2500 kg/ha): 9.0; AMBEL preemergence herbicidal rating ([16]; Rate 0.0620 kg/ha): 9.0; AMBEL preemergence herbicidal rating ([16]; Rate 0.1250 kg/ha): 9.0; AMBEL preemergence herbicidal rating ([16]; Rate 0.2500 kg/ha): 9.0; CASOB preemergence herbicidal rating ([17]; Rate 0.0620 kg/ha): 6.5; CASOB preemergence herbicidal rating ([17]; Rate 0.1250 kg/ha): 8.0; CASOB preemergence herbicidal rating ([17]; Rate 0.2500 kg/ha): 9.0; IPOHE preemergence herbicidal rating ([18]; Rate 0.0620 kg/ha): 9.0; IPOHE preemergence herbicidal rating ([18]; Rate 0.1250 kg/ha): 9.0; IPOHE preemergence herbicidal rating ([18]; Rate 0.2500 kg/ha): 9.0; Postemergence herbicidal rating, ABUTH ([19]; rate 0.0320 kg/ha): 9.0; Postemergence herbicidal rating, ABUTH ([19]; rate 0.0620 kg/ha): 9.0; herbicidal rating, CYPIR (CYPIR (Cyperus iria); rate 0.0320 kg/ha): 4.0; herbicidal rating, CYPIR (CYPIR (Cyperus iria); rate 0.1250 kg/ha): 7.0

**Q.** What does the source list for `CC1CC(C)(C)OC(c2nsc3ccc(-n4c(=O)cc(C(F)(F)F)n(C)c4=O)cc23)O1` (stereo not shown) [Compound 55, 1-methyl-6-(trifluoromethyl)-3-[3-(4,4,6-trimethyl-m-dioxan-2-yl)-1,2-benzisothiazol-5-yl]uracil]?
**A.** GLXMAW herbicidal rating ([1]; rate 0.0320 kg/ha): 4.5; GLXMAW herbicidal rating ([1]; rate 0.0620 kg/ha): 5.0; CHEAL herbicidal rating ([2]; rate 0.0320 kg/ha): 5.0; CHEAL herbicidal rating ([2]; rate 0.0620 kg/ha): 4.0; AMBEL herbicidal rating ([3]; rate 0.0320 kg/ha): 9.0; AMBEL herbicidal rating ([3]; rate 0.0620 kg/ha): 9.0; CASOB herbicidal rating ([4]; rate 0.0320 kg/ha): 2.0; CASOB herbicidal rating ([4]; rate 0.0620 kg/ha): 1.0; Preemergence herbicidal rating ZEAMX (ZEAMX (Corn, Field) [5]; Rate 0.0620 kg/ha): 8.0; Preemergence herbicidal rating ZEAMX (ZEAMX (Corn, Field) [5]; Rate 0.1250 kg/ha): 9.0; Preemergence herbicidal rating ZEAMX (ZEAMX (Corn, Field) [5]; Rate 0.2500 kg/ha): 8.0; GALAP herbicidal rating (GALAP (Galium aparine) [6]; rate 0.0320 kg/ha): 2.0; GALAP herbicidal rating (GALAP (Galium aparine) [6]; rate 0.0620 kg/ha): 2.0; ECHCG herbicidal rating ([7]; rate 0.0320 kg/ha): 1.0; ECHCG herbicidal rating ([7]; rate 0.0620 kg/ha): 1.0; ZEAMX herbicidal rating (ZEAMX (Corn, Field) [8]; rate 0.0320 kg/ha): 4.5; ZEAMX herbicidal rating (ZEAMX (Corn, Field) [8]; rate 0.0620 kg/ha): 5.0; herbicidal rating, CYPSE ([9]; rate 0.0320 kg/ha): 9.0; herbicidal rating, CYPSE ([9]; rate 0.1250 kg/ha): 9.0; herbicidal rating, SAGPY ([20]; rate 0.0080 kg/ha): 0.0; herbicidal rating, SAGPY ([20]; rate 0.0320 kg/ha): 0.0; herbicidal rating, SAGPY ([20]; rate 0.1250 kg/ha): 7.0; IPOHE herbicidal rating ([10]; rate 0.0320 kg/ha): 9.0; IPOHE herbicidal rating ([10]; rate 0.0620 kg/ha): 9.0; Preemergence herbicidal rating ORYSAT (ORYSAT (Rice, Tebonnet); Rate 0.0620 kg/ha): 7.5; Preemergence herbicidal rating ORYSAT (ORYSAT (Rice, Tebonnet); Rate 0.1250 kg/ha): 9.0; Preemergence herbicidal rating ORYSAT (ORYSAT (Rice, Tebonnet); Rate 0.2500 kg/ha): 9.0; herbicidal rating, ECHORC ([11]; rate 0.0080 kg/ha): 5.0; herbicidal rating, ECHORC ([11]; rate 0.0320 kg/ha): 7.5; herbicidal rating, ECHORC ([11]; rate 0.1250 kg/ha): 9.0; Preemergence herbicidal rating GLXMAW ([12]; Rate 0.0620 kg/ha): 6.5; Preemergence herbicidal rating GLXMAW ([12]; Rate 0.1250 kg/ha): 8.0; Preemergence herbicidal rating GLXMAW ([12]; Rate 0.2500 kg/ha): 9.0; Preemergence herbicidal rating TRZAWR ([14]; Rate 0.0620 kg/ha): 8.0; Preemergence herbicidal rating TRZAWR ([14]; Rate 0.1250 kg/ha): 9.0; Preemergence herbicidal rating TRZAWR ([14]; Rate 0.2500 kg/ha): 9.0; Preemergence herbicidal rating CHEAL ([15]; Rate 0.0620 kg/ha): 9.0; Preemergence herbicidal rating CHEAL ([15]; Rate 0.1250 kg/ha): 9.0; Preemergence herbicidal rating CHEAL ([15]; Rate 0.2500 kg/ha): 9.0; Preemergence herbicidal rating AMBEL ([16]; Rate 0.0620 kg/ha): 9.0; Preemergence herbicidal rating AMBEL ([16]; Rate 0.1250 kg/ha): 9.0; Preemergence herbicidal rating AMBEL ([16]; Rate 0.2500 kg/ha): 9.0; Preemergence herbicidal rating CASOB ([17]; Rate 0.0620 kg/ha): 3.5; Preemergence herbicidal rating CASOB ([17]; Rate 0.1250 kg/ha): 7.5; Preemergence herbicidal rating CASOB ([17]; Rate 0.2500 kg/ha): 7.0; Preemergence herbicidal rating IPOHE ([18]; Rate 0.0620 kg/ha): 7.5; Preemergence herbicidal rating IPOHE ([18]; Rate 0.1250 kg/ha): 7.5; Preemergence herbicidal rating IPOHE ([18]; Rate 0.2500 kg/ha): 8.0; ABUTH herbicidal rating ([19]; rate 0.0320 kg/ha): 9.0; ABUTH herbicidal rating ([19]; rate 0.0620 kg/ha): 9.0; herbicidal rating, CYPIR (CYPIR (Cyperus iria); rate 0.0080 kg/ha): 0.0; herbicidal rating, CYPIR (CYPIR (Cyperus iria); rate 0.0320 kg/ha): 6.0; herbicidal rating, CYPIR (CYPIR (Cyperus iria); rate 0.1250 kg/ha): 9.0
